Several values for one entry are separate records, joined by “and”; a condition that tells them apart may be missing. Identical values can stand only once. Like-named read-outs stand apart in the source and are kept apart here.

Data set [1] relates to HCV 1b replicon system (Huh-luc). The data set can be described thus: Antiviral combination studies with Compound 6, MacSynergy II.
For data set [2], the system named is HCV genotype 1a replicon. The data set can be described thus: HCV genotype 1a replicon assay, EC50 (Biological Example 8). To be noted: Hepatitis C virus, 72 h. For orientation: A replicon is a self-replicating genome or part of one, used to study replication in cells.
The nature of data set [3]: HCV genotype 1a replicon assay, CC50 by calcein AM (Biological Example 8). Conditions: human, Huh-7 cells carrying an HCV genotype 1a replicon.
The test system of data set [4] is HCV genotype 1a replicon. The data set is described as follows: Antiviral combination studies with Compound 10, MacSynergy II. Conditions: in combination with Compound 10.
The test system of data set [5] is Genotype 1 b replicon cells. The data set is described as follows: Compound combination replicon cure assay, colony formation. To be noted: 6 days treatment at the same concentrations, then G418 for 14 days.
Data set [6] has as its system 1b Huh-luc replicon cells. The data set can be described thus: Antiviral combination studies with Compound 5, MacSynergy II. The class given is cell-based, HCV. Here is the method:
Combination data were analyzed based on the Bliss Independence model using MacSynergy II software. Results of the combination assays were expressed as mean synergy and antagonism volumes (nM^2) calculated at 95% confidence from two independent experiments performed in triplicate.

Data set [7] is described as follows: HCV genotype 1a replicon assay, CC50 by calcein AM (Biological Example 3). It is filed as cell-based. To be noted: human, Huh-7 cells carrying a HCV genotype 1a replicon, genotype 1a replicon cells. Here is the method:
The CC50 assay was performed first.

Data set [8] has as its system HCV genotype 1a replicon. The data set can be described thus: HCV genotype 1a replicon assay, EC50 (Biological Example 3). It is filed as cell-based. Conditions: Hepatitis C virus, 72 h, 3 days, average ± standard deviation, read-out: EC50.
The subject of data set [9] is Huh-7 cells carrying a HCV genotype 1a replicon. The data set is described as follows: Cytotoxicity combination studies with Compound 4, MacSynergy II.
The test system of the next data set is genotype 1b replicon RNA. The data set can be described thus: Replicon RNA suppression, 6 day assay, QRT-PCR.
Data set [10] concerns Huh-7 cells carrying an HCV genotype 1a replicon. To be noted: with 320 nM Compound 10 and the highest concentration of the listed compound.
The subject of data set [11] is HCV genotype 1a replicon. The data set is described as follows: Antiviral combination studies with Compound 4, MacSynergy II. To be noted: in combination with Compound 4, mean ± standard deviation.
Data set [12] deals with GT4a NS5B S282T mutant chimeric replicon. The data set is described as follows: microbe, parasite or virus in culture. It is filed as cell-based, HCV.
The test system of data set [13] is NS5B S282T mutant replicons. The data set can be described thus: microbe, parasite or virus in culture. The class given is cell-based, HCV. Conditions: Hepatitis C virus, read-out: EC50 values for S282T across all five genotypes.
Data set [14] deals with GT2b NS5B S282T mutant chimeric replicon. The data set is described as follows: microbe, parasite or virus in culture. The class given is cell-based, HCV.
Data set [15] relates to Genotype 1a replicon, NS5A L31M.
Data set [16] deals with Genotype 1a replicon, NS5A M28T.
Data set [17] deals with Genotype 1a replicon, NS5A Q30H.
The test system of data set [18] is GT2a NS5B S282T mutant replicon. The data set can be described thus: microbe, parasite or virus in culture. It is filed as cell-based, HCV.
A further data set has as its system GT2a wild-type replicon. The data set can be described thus: microbe, parasite or virus in culture. It is filed as cell-based, HCV. Conditions: Hepatitis C virus, 72 h, 3 days.
Another data set concerns GT1b wild-type replicon. The data set is described as follows: microbe, parasite or virus in culture. The class given is cell-based, HCV. To be noted: Hepatitis C virus, 72 h, 3 days.
In data set [19] the test system is GT1b NS5B S282T mutant replicon. The data set is described as follows: microbe, parasite or virus in culture. It is filed as cell-based, HCV.
The subject of data set [20] is GT3a NS5B S282T mutant chimeric replicon. The data set is described as follows: microbe, parasite or virus in culture. It is filed as cell-based, HCV.
The subject of data set [21] is GT2b wild-type chimeric replicon (2b NS5B in GT1b backbone). The data set is described as follows: microbe, parasite or virus in culture. The class given is cell-based, HCV. Conditions: Hepatitis C virus, 72 h, read-out: EC50 WT.
Data set [22] has as its system Genotype 1a replicon, NS5A Q30E.
Data set [23] relates to panel of NS5A mutant replicons. The data set can be described thus: Transient replicon assay, panel of NS5A mutant replicons. It is filed as cell-based, HCV. To be noted: seven NS5A mutants, genotype 1a. The text has this: NS5A mutant replicons were created by synthesizing a sequence encoding the first 149 amino acids of NS5A containing the desired mutation flanked by a 5′ and 3′ BsrGI and EcoRI site, respectively (Genscript, Piscataway, N.J.). Synthesized fragments were then cloned by standard molecular biology techniques into a 1a Rluc replicon plasmid modified to enable cloning into unique BsrGI and EcoRI restriction sites. Mutations were confirmed by DNA sequencing.
RNA was transfected into Huh-lunet cells using the method of Lohmann et al. (Lohmann et al., Science 1999; 285 (5424):110-3) Briefly, cells were trypsinized and washed twice with PBS. A suspension of 4×10^6 cells in 400 μL of PBS were mixed with 5 μg of RNA and subjected to electroporation using settings of 960 μF and 270 V. Cells were transferred into 40 mL of pre-warmed culture medium and then seeded into 96-well or 384-well plates. Compounds were 3-fold serially diluted in 100% DMSO and added to cells to achieve a final DMSO concentration of 0.5%. Cells were treated for three days after which culture media were removed, cells were lysed, and Renilla luciferase activity was quantified using commercially available reagents (Promega) and a Victor or Envision instrument (Perkin Elmer, Waltham, Mass.).
Resistance fold changes were calculated as the ratio of mutant to wild-type replicon EC50. […]

The subject of data set [24] is GT4a wild-type chimeric replicon (4a NS5B in GT1b backbone). The data set can be described thus: microbe, parasite or virus in culture. The class given is cell-based, HCV. Conditions: Hepatitis C virus, 72 h, read-out: EC50 WT.
Data set [25] concerns GT3a wild-type chimeric replicon (3a NS5B in GT1b backbone). The data set can be described thus: microbe, parasite or virus in culture. The class given is cell-based, HCV. Conditions: Hepatitis C virus, 72 h, read-out: EC50 WT.
Data set [26] deals with Genotype 1a replicon, NS5A Y93H.
Data set [27] concerns Genotype 1a replicon, NS5A Q30R.
[28] abbreviates: in combination with Compound 6, mean ± standard deviation.
The mark [29] stands for this setting: in combination with Compound 5, mean ± standard deviation.
The mark [30] stands for this setting: in combination with Compound 4, mean ± standard deviation.

For `CC[C@@H]1C[C@]1(NC(=O)[C@@H]1C[C@@H](Oc2cc(-c3csc(NC(C)C)n3)nc3c(Cl)c(OCCN4CCOCC4)ccc23)CN1C(=O)[C@@H](NC(=O)O[C@@H]1C[C@@H]2C[C@@H]2C1)C(C)(C)C)C(=O)O` [Compound 3], the Interaction entry in data set [1] (in combination with Compound 6) is on record as “Strong Synergy”; with HCV genotype 1a replicon [4] it was “Additive”; in data set [6] (in combination with Compound 5), “Additive”. Also, the “Antagonism Volume” value in data set [1] (setting [28]) was −0.1 ± 0.2 nM^2; in [6] (setting [29]), −2 ± 2 nM^2; in the data set with HCV genotype 1a replicon [11], −3 ± 2 nM^2%. In addition, the “Synergy Volume” value in data set [1] (setting [28]) is 132 nM^2 and 132 ± 44 nM^2; in [6] (setting [29]) it was 19 ± 13 nM^2; in the data set with HCV genotype 1a replicon [11], 26 ± 6 nM^2%. In addition, the EC50 (in general, the midpoint of the concentration-response curve) in the data set with HCV genotype 1a replicon [2] is 46 nM; with HCV genotype 1a replicon [8] it was 49 ± 18 nM. The CC50 at 3 days in data set [3] and in data set [7] was above 22200 nM in each case. In addition, in data set [5], the Uncured colony number came out at 989. Further, the “Interaction (cytotoxicity)” value in [9] (in combination with Compound 4) was “Additivity (Additivity: ≤25 and >−25 nM^2%)”. In [9] (setting [30]), the “Antagonism Volume (cytotoxicity)” value is 0 ± 0 nM^2%. Also, the “Synergy Volume (cytotoxicity)” value in data set [9] (setting [30]) came to 3 ± 5 nM^2%. Also, the “Replicon RNA log drop” value is recorded as −0.9 log in the data set on genotype 1b replicon RNA and −0.9 log in the data set on genotype 1b replicon RNA (single compound at the listed concentration, 6 days, relative to DMSO control (Table XIV)). The “Compound concentration able to induce replicon RNA 1-1.5 log drop in a 6 day assay” value in the data set with genotype 1b replicon RNA (genotype 1b replicon cells, 6 days) is listed as 26.25 nM. The “Cytotoxicity at Highest Concentration of Compound Combinations (% inhibition on cell growth)” value in data set [10] is recorded as 2.0 ± 3.5%.
`CC(C)OC(=O)[C@H](C)N[P@](=O)(OC[C@H]1O[C@@H](n2ccc(=O)[nH]c2=O)[C@](C)(F)[C@@H]1O)Oc1ccccc1` [Compound 10]: the Fold change in data set [12] (GT4a, S282T EC50 versus corresponding wild type) turned out to be 6.1; in data set [14] (GT2b, S282T EC50 versus corresponding wild type), 16.2; in data set [18] (GT2a, S282T EC50 versus corresponding wild type) it was 2.4; in data set [19] (GT1b, S282T EC50 versus corresponding wild type), 8.8; in data set [20] (GT3a, S282T EC50 versus corresponding wild type) it was 3.5. Further, the EC50 is 218 nM in data set [12] (Hepatitis C virus, GT4A, 72 h, read-out: EC50 S282T); 117 to 346 nM in [13]; 216 nM in data set [14] (Hepatitis C virus, GT2B, 72 h, read-out: EC50 S282T); 346 nM in data set [18] (Hepatitis C virus, GT2A, 72 h, read-out: EC50 S282T); 147 nM in the data set with GT2a wild-type replicon; 21.5 nM with GT1b wild-type replicon. Also, the EC50 amounted to 39 nM with HCV genotype 1a replicon [2]; 189 nM in data set [19] (Hepatitis C virus, GT1B, 72 h, read-out: EC50 S282T); 117 nM in data set [20] (Hepatitis C virus, GT3A, 72 h, read-out: EC50 S282T); 13.3 nM in [21]; 35.8 nM in data set [24]; 33.9 nM in data set [25]. Further, the “Fold Shift in EC50 (DRM EC50/1a-H77 EC50)” value in [15] was determined as 1.1; in data set [16], 0.9; in [17], 1.0; in [22] it was 1.0; in [26] it was 0.7; in data set [27] it was 0.8. For the same compound, the CC50 (commonly the concentration at which the toxic effect on the cells reaches its halfway point) at 3 days in data set [3] was above 82400 nM. The “increase (shift) in EC50 for NS5A mutants” value in data set [23] is on record as “no significant shift”.

(Values after patent US10456414B2, “Methods for treating HCV” (priority 2011, dated 2019).)
